Experimental data published in patent publication US20250197387A1, “BCL-XL DEGRADERS AND USES THEREOF” (Kymera Therapeutics, Inc., priority 2021, published 2025).
Like-named read-outs stand apart in the source and are kept apart here.

Key:
Assay type in all cases: cell-based
BCL-XL [1] = target: T1, BCL-XL (Homo sapiens, UniProt Q07817); experiment: BCL-XL degradation assay, western blot in MOLT-4 cells, 16 h; conditions: for DC50: read-out: Bcl-xL WB in MOLT-4 degradation 16 h: Mean external-Abs DC50
T1 construct: endogenous in cells; host or cells: MOLT-4
In short: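 Infrared-imaged western blots quantified BCL-xL (normalised against beta-actin/GAPDH) after 16 hr, 37° C exposure of MOLT-4 cells to 0.02-10 μM compound; results given as DC50 and Dmax % bins.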

Caki-2 cells = experiment: CTG (CellTiter-Glo) cell viability assay, Caki-2; conditions: Homo sapiens, 72 h, 3 day incubation, read-out: CTG Chempartner - Caki-2 3 day: Average external-IC50
Protocol: Compound-mediated viability effect on MOLT-4 and Caki-2 was quantitatively determined using the CellTiter-Glo® Luminescent Cell Viability Assay kit from Promega (Catalog number G7570) following manufacturer's recommended procedures. Briefly, MOLT-4 and Caki-2 cells were seeded into 384 well plates (Grenier Bio-One, Catalog number 781080) with a density of 10,000 cells per well. Compounds were then added to the assay plate with final top concentration of 10 μM and 1:3 dilution series with total of 9 doses. The final DMSO concentration is normalized to 0.2%. The assay plates were incubated at 37° C., for 3 days under 5% CO2. Then the assay plate was equilibrated at room temperature for 10 minutes. To determine cell viability, 30 uL CellTiter Glo reagent was added to each well and the assay plate was centrifuged at 1000 rpm for 30 second, incubated at room temperature for 10 min, and analyzed by detecting the luminescence using a multimode plate reader (EnVision 2105, PerkinElmer). The data was then analyzed by software Prism 7.0 from GraphPad and the dose response curves are fit using a three-parameter logistic equation to calculate IC50.
The letter codes for MOLT-4 IC50 include: A (<0.1 μM); B (0.1-1.0 μM); C (>1.0-3.0 μM); and D (>3.0 μM). The letter codes for Caki-2 IC50 include: A (<0.1 μM); B (0.1-1.0 μM); C (>1.0-10.0 μM); and D (>10.0 μM).

MOLT-4 cells = experiment: CTG (CellTiter-Glo) cell viability assay, MOLT-4; conditions: Homo sapiens, 3 day incubation, read-out: CTG Cell Viability Assay - MOLT-4 3 day: Average external-IC50
In short: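 IC50 is from a three-parameter logistic fit of CellTiter-Glo luminescence after 3-day treatment of cells seeded at 10,000 per well. Codes: MOLT-4 A <0.1, B 0.1-1.0, C >1.0-3.0, D >3.0 μM; Caki-2 A <0.1, B 0.1-1.0, C >1.0-10.0, D >10.0 μM.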

BCL-XL [2] = target: T1, BCL-XL; experiment: Bcl-xL ELISA degradation in MOLT-4 cells, 6 h; conditions: for DC50: read-out: Bcl-xL ELISA in MOLT-4 degradation 6 h: Mean external-Abs DC50
Protocol: The letter codes for BCL-XL DC50 include: A (<0.01 μM); B (0.01-0.1 μM); C (>[…]); D (>0.5-1.0 μM); and E (>1.0 μM). The letter codes for Dmax % include A (>75%); B (50 to 75%); C (<50%).

[3] = western blot, MOLT-4 cells, 16 h, read-out: Bcl-xL WB in MOLT-4 degradation 16 h: Average Dmax %
[4] = western blot, MOLT-4 cells, 16 h

T1 sequence (Q07817 whole entry): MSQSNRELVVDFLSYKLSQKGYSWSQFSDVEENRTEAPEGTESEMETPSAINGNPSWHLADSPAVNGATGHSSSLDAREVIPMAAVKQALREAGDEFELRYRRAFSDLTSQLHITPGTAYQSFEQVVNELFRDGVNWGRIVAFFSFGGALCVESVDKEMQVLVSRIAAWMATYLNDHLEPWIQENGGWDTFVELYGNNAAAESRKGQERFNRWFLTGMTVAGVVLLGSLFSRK

SMILES | Dmax (BCL-XL [1]; [3]) [%] | DC50 (BCL-XL [1]; [4]) [nM] | IC50 (Caki-2 cells) [nM] | IC50 (MOLT-4 cells; MOLT-4, 72 h) [nM] | Dmax (BCL-XL [2]) [%] | DC50 (BCL-XL [2]) [nM] | Dmax (BCL-XL [1]; MOLT-4, read-out: Bcl-xL WB in MOLT-4 degradation 16 h: Average Dmax %) [%] | IC50 (MOLT-4 cells; 72 h) [nM]
Cc1ncsc1-c1ccc([C@H](C)NC(=O)[C@@H]2C[C@@H](O)CN2C(=O)[C@@H](NC(=O)CCCCCC(=O)NCCOc2ccc(C(=O)Nc3nc4ccccc4s3)c3c2CCN(c2ccc(-c4cnn(CC5CCCCC5)c4C)c(C(=O)O)n2)C3)C(C)(C)C)cc1 [I-44] | > 75 | 100 to 500 | > 10000 | – | – | – | – | –
Cc1cc([C@H](C(=O)N2C[C@H](O)C[C@H]2C(=O)NCc2ccc(-c3scnc3C)cc2OCCCCCCNC(=O)c2nc(N3CCc4cccc(C(=O)Nc5nc6ccccc6s5)c4C3)ccc2-c2cnn(CC3CCCCC3)c2C)C(C)C)on1 [I-197] | > 75 | 10 to 100 | – | 100 to 1000 | < 50 | > 1000 | – | –
Cc1ncsc1-c1ccc([C@H](C)NC(=O)[C@@H]2C[C@@H](O)CN2C(=O)[C@@H](NC(=O)C2CCN(c3ccc(S(=O)(=O)NC(=O)c4nc(N5CCc6cccc(C(=O)Nc7nc8ccccc8s7)c6C5)ccc4-c4cccc5c4cnn5C(C)C)cc3)CC2)C(C)(C)C)cc1 [I-297] | – | – | 1000 to 10000 | – | < 50 | 500 to 1000 | – | –
Cc1ncsc1-c1ccc([C@H](C)NC(=O)[C@@H]2C[C@@H](O)CN2C(=O)[C@@H](NC(=O)CCCCCC(=O)N(C)CC#Cc2cccc(F)c2OCCCc2sc(N3CCc4cccc(C(=O)Nc5nc6ccccc6s5)c4C3)nc2C(=O)O)C(C)(C)C)cc1 [I-16] | > 75 | 100 to 500 | > 10000 | – | – | – | – | –
Cc1ncsc1-c1ccc([C@H](C)NC(=O)[C@@H]2C[C@@H](O)CN2C(=O)[C@@H](NC(=O)N2CC(c3ccc(S(=O)(=O)NC(=O)c4nc(N5CCc6cccc(C(=O)Nc7nc8ccccc8s7)c6C5)ccc4-c4cnn(CC5CCCCC5)c4C)cc3)C2)C(C)(C)C)cc1 [I-210] | > 75 | 100 to 500 | – | 100 to 1000 | 50 to 75 | 100 to 500 | – | –
Cc1ncsc1-c1ccc([C@H](C)NC(=O)[C@@H]2C[C@@H](O)CN2C(=O)[C@@H](NC(=O)CCCCCCCC(=O)N(C)CC#Cc2cccc(F)c2OCCCc2sc(N3CCc4cccc(C(=O)Nc5nc6ccccc6s5)c4C3)nc2C(=O)O)C(C)(C)C)cc1 [I-17] | > 75 | 10 to 100 | > 10000 | – | – | – | – | –
Cc1ncsc1-c1ccc(CNC(=O)[C@@H]2C[C@@H](O)CN2C(=O)[C@H](c2cc(N3CC4(CN(CCCC(=O)N(C)CC#Cc5ccc(OCCCc6ccc(N7CCc8cccc(C(=O)Nc9nc%10ccccc%10s9)c8C7)nc6C(=O)O)c(F)c5)C4)C3)no2)C(C)C)cc1 [I-181] | > 75 | < 10 | – | 100 to 1000 | 50 to 75 | 10 to 100 | – | –
Cc1ncsc1-c1ccc(CNC(=O)[C@@H]2C[C@@H](O)CN2C(=O)[C@@H](NC(=O)C2(F)CC2)C(C)(C)C)c(OCC(=O)N2CCN(CC#Cc3ccc(OCCCc4sc(N5CCc6cccc(C(=O)Nc7nc8ccccc8s7)c6C5)nc4C(=O)O)c(F)c3)CC2)c1 [I-170] | > 75 | 10 to 100 | – | 100 to 1000 | 50 to 75 | 10 to 100 | – | –
Cc1ncsc1-c1ccc(CNC(=O)[C@@H]2C[C@@H](O)CN2C(=O)[C@@H](NC(=O)C2(F)CC2)C(C)(C)C)c(OCCN2CCC(CS(=O)(=O)NC(=O)c3nc(N4CCc5cccc(C(=O)Nc6nc7ccccc7s6)c5C4)ccc3-c3cnn(CC4CCCCC4)c3C)CC2)c1 [I-189] | > 75 | 10 to 100 | – | 100 to 1000 | 50 to 75 | 10 to 100 | – | –
Cc1ncsc1-c1ccc([C@H](C)NC(=O)[C@@H]2C[C@@H](O)CN2C(=O)[C@@H](NC(=O)CCCCCCN(C)C(=O)c2nc(N3CCc4cccc(C(=O)Nc5nc6ccccc6s5)c4C3)ccc2-c2cnn(CC3CCCCC3)c2C)C(C)(C)C)cc1 [I-185] | > 75 | 10 to 100 | – | 100 to 1000 | 50 to 75 | 10 to 100 | – | –
Cc1ncsc1-c1ccc(CNC(=O)[C@@H]2C[C@@H](O)CN2C(=O)[C@@H](NC(=O)C2(F)CC2)C(C)(C)C)c(OCC(=O)N2CCN(CC[C@H](CSc3ccccc3)Nc3ccc(S(=O)(=O)NC(=O)c4ccc(N5CCN(CC6=C(c7ccc(Cl)cc7)CCC(C)(C)C6)CC5)cc4)cc3S(=O)(=O)C(F)(F)F)CC2)c1 [I-387] | > 75 | 10 to 100 | > 10000 | – | – | – | – | –
Cc1ncsc1-c1ccc([C@H](C)NC(=O)[C@@H]2C[C@@H](O)CN2C(=O)[C@@H](NC(=O)CN2CC(N3CCC(NC(=O)c4nc(N5CCc6cccc(C(=O)Nc7nc8ccccc8s7)c6C5)ccc4-c4cnn(CC5CCCCC5)c4C)CC3)C2)C(C)(C)C)cc1 [I-176] | – | 10 to 100 | – | – | 50 to 75 | 100 to 500 | > 75 | 100 to 1000
Cc1ncsc1-c1ccc([C@H](C)NC(=O)[C@@H]2C[C@@H](O)CN2C(=O)[C@@H](NC(=O)CO[C@H]2C[C@H](OCCNC(=O)c3nc(N4CCc5cccc(C(=O)Nc6nc7ccccc7s6)c5C4)ccc3-c3cnn(CC4CCCCC4)c3C)C2)C(C)(C)C)cc1 [I-182] | > 75 | 10 to 100 | – | 100 to 1000 | 50 to 75 | 100 to 500 | – | –
Cc1ncsc1-c1ccc(CNC(=O)[C@@H]2C[C@@H](O)CN2C(=O)[C@H](c2cc(N3CC4(CN(C(=O)CCCCC(=O)N(C)CC#Cc5ccc(OCCCc6ccc(N7CCc8cccc(C(=O)Nc9nc%10ccccc%10s9)c8C7)nc6C(=O)O)c(F)c5)C4)C3)no2)C(C)C)cc1 [I-192] | 50 to 75 | < 10 | – | 1000 to 3000 | < 50 | > 1000 | – | –
C#Cc1ccc([C@H](CO)NC(=O)[C@@H]2C[C@@H](O)CN2C(=O)[C@@H](NC(=O)CCc2ccc(S(=O)(=O)NC(=O)c3nc(N(C)c4cc(C)c(Nc5nc6ccccc6s5)nn4)ccc3-c3cnn(CC4CCCCC4)c3C)cc2)C(C)(C)C)cc1 [I-186] | > 75 | 10 to 100 | – | 100 to 1000 | 50 to 75 | 10 to 100 | – | –
Cc1ncsc1-c1ccc(CNC(=O)[C@@H]2C[C@@H](O)CN2C(=O)[C@@H](NC(=O)C2(F)CC2)C(C)(C)C)c(OCCCN(C)CC[C@H](CSc2ccccc2)Nc2ccc(S(=O)(=O)NC(=O)c3ccc(N4CCN(CC5=C(c6ccc(Cl)cc6)CCC(C)(C)C5)CC4)cc3)cc2S(=O)(=O)C(F)(F)F)c1 [I-184] | > 75 | 10 to 100 | – | 100 to 1000 | 50 to 75 | 100 to 500 | – | –
Cc1ncsc1-c1ccc(CNC(=O)[C@@H]2C[C@@H](O)CN2C(=O)[C@@H](NC(=O)C2(F)CC2)C(C)(C)C)c(OCCN2CC3(C2)CN(C(=O)c2nc(N4CCc5cccc(C(=O)Nc6nc7ccccc7s6)c5C4)ccc2-c2cnn(CC4CCCCC4)c2C)C3)c1 [I-207] | 50 to 75 | 100 to 500 | – | 100 to 1000 | < 50 | > 1000 | – | –
Cc1ncsc1-c1ccc([C@H](C)NC(=O)[C@@H]2C[C@@H](O)CN2C(=O)[C@@H](NC(=O)CCCC(=O)N(C)CC#Cc2cccc(F)c2OCCCc2sc(N3CCc4cccc(C(=O)Nc5nc6ccccc6s5)c4C3)nc2C(=O)O)C(C)(C)C)cc1 [I-15] | 50 to 75 | 500 to 1000 | > 10000 | – | – | – | – | –
